From US10393633B2, “Sample fixation and stabilisation” (RNASSIST LTD., priority 2013, dated 2019)
Where two headings read alike, the source gives them in different places.

Assays:
[1] = Solid or liquid state of the mixtures at 24° C. / 100° C.; assay type: physicochemical; settings: for Room temperature (24° C.) DES liquid on mixing with Choline chloride: 1:2 mol:mol proportion
RNA in rat tissue = assay: RNA stabilisation in animal tissue by DES mixtures, 37° C. 18 hours, RNA yield and gel RNA quality (Example 3, Tables 1 and 2)
RNA of guanidine lysate = assay: RNA yields from Guanidine/Choline chloride:Trifluoroacetamide mixtures in the absence of ethanol for binding (Example 30, Table 11); parameters: species or system mouse; settings: no ethanol
[2] = 0 highly degraded to 10 highest quality, 18S/28S rRNA on agarose gel, 37° C. 18 hours
[3] = Table 1, solid or liquid at room temperature

Room temperature (24° C.) DES liquid on mixing with Choline chloride [1] | Structure (SMILES) | other results
could not be prepared | CCn1ccnc1 [N-Ethylimidazole] | 
could not be prepared | NC(=O)C(N)=O [Oxamide] | 
could not be prepared | CC(C)(C)C(N)=O [Pivalamide] | 
could not be prepared | O=C(O)[C@@H]1CCCN1 [Proline] | 

Continued, molecule first:

Structure (SMILES) | Room temperature (24° C.) DES liquid on mixing with Choline chloride [1] | other results
CN1CCN(C)C1=O [1,3-Dimethyl-2-imidazolidone] | could not be prepared | 
c1ccc(Cn2ccnc2)cc1 [1-Benzylimidazole] | could not be prepared | 
CCN1CCCC1=O [1-Ethyl-2-pyrrol] | could not be prepared | 
O=CN1CCOCC1 [4-Formyl morpholine] | could not be prepared | 
CC(=O)CCC(C)=O [Acetonyl acetone] | could not be prepared | 
N.N.N.O=P(O)(O)O [Ammonium phosphate] |  | Formation of room temperature DES liquids by ammonium salts [1]: not capable of forming room temperature DES liquids
C[N+](C)(C)CC(=O)O [Betaine:Water (Sat'd), Betaine, reference compound] |  | RNA Quality 0-10 (RNA in rat tissue; [2]): 0; Liquid at 24° C. [1, 3]: Yes
C[N+](C)(C)CCO.[Cl-] [Choline chloride:Water (6M), Choline chloride, reference compound] |  | RNA Quality 0-10 (RNA in rat tissue): 3; Liquid at 24° C. [1]: Saturated
O=C1OCCO1 [Ethylene carbonate] | could not be prepared | 
NC(=O)C(F)(F)F [Trifluoroacetamide] |  | RNA yield compared with Choline chloride:Trifluoroacetamide dissolved in Buffer RLT (1:1 wt:wt) (RNA of guanidine lysate): 15%
NC(N)=O [Water:Urea (5M), Urea, reference compound] |  | RNA Quality 0-10 (RNA in rat tissue; [2]): 0; Liquid at 24° C. [1, 3]: Saturated
